Like-named read-outs stand apart in the source and are kept apart here.
What was measured:
[1] = biological target: T1, Full-length recombinant rat receptor (vitamin D receptor) (Rattus norvegicus, UniProt P13053); conditions: comparison compound from an earlier filing; read-out: Competitive VDR Binding, Ki; cited from earlier work
T1 construct: Full-length recombinant rat receptor was expressed in E. coli; histidine tag (C); made in house; host or cells: E. coli BL21(DE3) Codon Plus RIL
T1 sequence (P13053 1-423): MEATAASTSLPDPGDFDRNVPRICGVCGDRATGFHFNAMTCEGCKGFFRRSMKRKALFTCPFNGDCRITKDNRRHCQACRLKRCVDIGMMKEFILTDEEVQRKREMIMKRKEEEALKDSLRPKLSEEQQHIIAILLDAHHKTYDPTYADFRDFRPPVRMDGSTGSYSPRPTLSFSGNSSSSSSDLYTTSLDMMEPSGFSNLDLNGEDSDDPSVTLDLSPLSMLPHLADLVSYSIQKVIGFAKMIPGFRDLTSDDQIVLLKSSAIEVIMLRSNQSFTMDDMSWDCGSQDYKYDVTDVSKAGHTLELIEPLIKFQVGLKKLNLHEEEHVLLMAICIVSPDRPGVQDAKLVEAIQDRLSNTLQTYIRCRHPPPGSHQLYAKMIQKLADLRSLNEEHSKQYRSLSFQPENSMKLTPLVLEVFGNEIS

[2] = biological target: T1, Full-length recombinant rat receptor (vitamin D receptor); experiment: Vitamin D receptor competitive binding; conditions: recombinant rat VDR, 3H-1,25(OH)2D3 1 nM
Description: Full-length recombinant rat receptor was expressed in E. coli BL21(DE3) Codon Plus RIL cells and purified to homogeneity using two different column chromatography systems. The first system was a nickel affinity resin that utilizes the C-terminal histidine tag on this protein. The protein that was eluted from this resin was further purified using ion exchange chromatography (S-Sepharose Fast Flow). Aliquots of the purified protein were quick frozen in liquid nitrogen and stored at −80° C. until use. For use in binding assays, the protein was diluted in TEDK50 (50 mM Tris, 1.5 mM EDTA, pH 7.4, 5 mM DTT, 150 mM KCl) with 0.1% Chaps detergent. The receptor protein and ligand concentration was optimized such that no more than 20% of the added radiolabeled ligand was bound to the receptor.
Unlabeled ligands were dissolved in ethanol and the concentrations determined using UV spectrophotometry (1,25(OH)2D3: molar extinction coefficient=18,200 and λmax=265 nm; Analogs: molar extinction coefficient=42,000 and λmax=252 nm). Radiolabeled ligand (^3H-1,25(OH)2D3, ˜159 Ci/mmole) was added in ethanol at a final concentration of 1 nM.
Radiolabeled and unlabeled ligands were added to 100 mcl of the diluted protein at a final ethanol concentration of ≦10%, mixed and incubated overnight on ice to reach binding equilibrium. […] Total binding was determined from the tubes containing only radiolabeled ligand.

[3] = system: 24-hydroxylase (24OHase) gene promoter; experiment: In vitro transcription assay (24OHase promoter-luciferase in ROS 17/2.8 cells); format: cell-based; conditions: for 24OHase Transcription (Relative Activity): (value for native hormone)/(value for working example), same assay
Description: Transcription activity was measured in ROS 17/2.8 (bone) cells that were stably transfected with a 24-hydroxylase (24OHase) gene promoter upstream of a luciferase reporter gene (Arbour et al., 1998). Cells were given a range of doses. Sixteen hours after dosing, the cells were harvested and luciferase activities were measured using a luminometer. RLU=relative luciferase units.

[4] = system: Human promyelocytic leukemia (HL60) cells; experiment: HL-60 differentiation (nitro blue tetrazolium reduction); format: cell-based; conditions: for HL-60 Differentiation (Relative Activity): (value for native hormone)/(value for working example), same assay; for EC50: Homo sapiens, 96 h, HL-60 cells into monocytes, 4 days
Description: The study drugs were dissolved in ethanol and the concentrations determined using UV spectrophotometry. Serial dilutions were prepared so that a range of drug concentrations could be tested without changing the final concentration of ethanol (≦0.2%) present in the cell cultures.
Human promyelocytic leukemia (HL60) cells were grown in RPMI-1640 medium containing 10% fetal bovine serum. The cells were incubated at 37° C. in the presence of 5% CO2.
HL60 cells were plated at 1.2×10^5 cells/ml. Eighteen hours after plating, cells in duplicate were treated with the drug. Four days later, the cells were harvested and a nitro blue tetrazolium reduction assay was performed (Collins et al., 1979; J. Exp. Med. 149:969-974). The percentage of differentiated cells was determined by counting a total of 200 cells and recording the number that contained intracellular black-blue formazan deposits. Verification of differentiation to monocytic cells was determined by measuring phagocytic activity (data not shown).

[5] = system: Sprague-Dawley rats; experiment: Intestinal calcium transport (everted gut sac); format: in vivo, rat; conditions: for serosal calcium to mucosal calcium ratio: rat, at 780 pM (so in the source)
Description: Male, weanling Sprague-Dawley rats were placed on Diet 11 (0.47% Ca) diet+AEK oil for one week followed by Diet 11 (0.02% Ca)+AEK oil for 3 weeks. The rats were then switched to a diet containing 0.47% Ca for one week followed by two weeks on a diet containing 0.02% Ca. Dose administration began during the last week on 0.02% calcium diet. Four consecutive intraperitoneal doses were given approximately 24 hours apart. Twenty-four hours after the last dose, blood was collected from the severed neck and the concentration of serum calcium determined as a measure of bone calcium mobilization. The first 10 cm of the intestine was also collected for intestinal calcium transport analysis using the everted gut sac method.

[6] = ROS 17/2.8 cells, luciferase, 16 h, read-out: 24OHase Transcription, EC50

| SMILES | Ki [1] [nM] | Ki [2] [nM] | 24OHase Transcription (Relative Activity) [3] | EC50 [3, 6] [nM] | HL-60 Differentiation (Relative Activity) [4] | EC50 [4] [nM] | serosal calcium to mucosal calcium ratio [5] | also measured |
| --- | --- | --- | --- | --- | --- | --- | --- | --- |
| C=C1C(O)CC(=CC=C2CCCC3(C)C2CCC3C(C)CC)CC1O [(20R)-2MbisP, 2-methylene-19-nor-(20R)-1α-hydroxybishomopregnacalciferol] | 0.078 | – | – | – | – | – | – | – |
| C=C1C(O)CC(=CC=C2CCCC3(C)C2CCC3C(C)CCC)CC1O [2MtrisP, 2-methylene-19-nor-(20S)-1α-hydroxytrishomopregnacalciferol] | 0.075 | – | – | – | – | – | – | – |
| C=C1[C@H](O)CC(=C/C=C2\CCC[C@]3(C)[C@@H]([C@@H](C)CC(C)C)CC[C@@H]23)C[C@H]1O [SMB, (20S)-2-methylene-19,23,24-trinor-1α-hydroxyvitamin D3] | – | 0.4 | 0.04 | 8 | 0.08 | 40 | – | EC50 ([3]; FIG. 3, read-out: EC50 with respect to increasing transcription of the 24-hydroxylase gene): 8000 nM; less active than 2MtrisP in HL-60 differentiation, normalized against native hormone ([4]; ratio of relative activities 1.2/0.08): ≈ 15; intestinal calcium transport activity lower than that of the native hormone ([5]; 7020 pmol SMB similar to 87 pmol native hormone): approximately 80 times |
| C=C1/C(=C\C=C2/CCC[C@]3(C)[C@@H]([C@H](C)CCCC(C)(C)O)CC[C@@H]23)C[C@@H](O)C[C@@H]1O [native hormone, 1α,25-dihydroxyvitamin D3, reference compound] | – | – | – | – | – | – | 4.1 | – |
| C=C1[C@H](O)CC(=C/C=C2\CCC[C@]3(C)[C@@H]([C@H](C)CC(C)C)CC[C@@H]23)C[C@H]1O [RMB, (20R)-2-methylene-19,23,24-trinor-1α-hydroxyvitamin D3] | – | 4 | 0.003 | 100 | 0.0005 | 6000 | 0.9 | less active than (20R)-2MbisP in hydroxylase transcription ([3]; ratio of relative activities 0.05/0.003): more than 16 times; less active than (20R)-2MbisP in differentiation of HL-60 cells ([4]; ratio of relative activities 0.18/0.0005): approximately 360 times |
